Measurements reported in patent publication US20070009986A1, “Compositions for modulating immune cell activity and methods for detection thereof” (priority 2003, published 2007).

Tested on: CD8+CD45RO+ T-cell migration towards and away from HIV-1gp120
Experiment: Inhibitor profile of T-cell movement towards and away from recombinant X4 gp120 in transmigration assays
Type: cell-based, human
Conditions: for inhibition of migration away from gp120: T-cells including HIV-specific CTL
Description: Transmigration assays: Transmigration assays were performed in a transwell system with a polycarbonate membrane of 6.5-mm diameter with 5 μm pore size (Corning, Corning, N.Y.) as described (Kim et al., 1998, Blood 91:4434-4443; Poznansky et al., 2000, Nat Med 6:543-548). Purified T-cell subpopulations (5×10^4 cells) were added to the upper chamber of each well in a total volume of 150 μl Iscove's modified media. SDF-1α (PeproTech, Rocky Hill, N.J.) or recombinant HIV-1 gp120 (Immunodiagnostics, Woburn, Mass., AIDS Reagent Repository, NIH or RW) was used at concentrations ranging from 2 ng/ml to […] in the lower, upper, or both lower and upper chambers of the transwell to generate a standard “checkerboard” analysis matrix of positive, negative and absent gradients. Recombinant variable loop deletion mutants of HIV-1IIIB gp120 including V1, V1.V2, and V1.V2.V3, were also used in these assays. Transwells were incubated for 3 hours at 37° C., after which cells were collected from the lower chamber and counted.
Specific components of the Gi-protein coupled receptor signaling pathway for SDF-1 can be blocked by a number of different chemical inhibitor (Poznansky et al., 2000, Nat Med 6:543-548; Poznansky et al., 2002, Clin. Invest. 109:1101-1110; Sotsios et al., 1999, J. Immunol. 163:5954-5963; Vlahakis et al. 2001, J. Clin. Invest. 107:207-215). The inhibitor profile for movement of resting T-cell subpopulations towards and away from recombinant X4 gp120 in transmigration assays had been established.

Row | Compound | inhibition of T-cell migration towards and away from HIV-1gp120 (CD8+CD45RO+ T-cells incubated with inhibitor prior to transmigration assay, FIG. 2) | inhibition of migration away from gp120
1 | pertussis toxin | significantly inhibited | inhibited
2 | Nc1ncnc2c1nc(Br)n2[C@@H]1O[C@@H]2COP(=O)(O)O[C@H]2[C@H]1O [8-Br-cAMP] | – | inhibited
